Data from ChEMBL document CHEMBL4706513, “New insight into 20(S)-ginsenoside Rh2 against T-cell acute lymphoblastic leukemia associated with the gut microbiota and the immune system” (2020).
Active and inactive are the calls of the source.

What was measured:
Mus musculus [1] = assay: Induction of intestinal homeostasis in SCID/NOD mouse xenografted with human Jurkat cells assessed as upregulation of secretion of IgA from B cells in colon at 40 mg/kg, po administered once a day for 3 weeks by western blot analysis; assay type: functional, organism-based; conditions: dose 40.0 mg/kg/day
Mus musculus [2] = assay: Induction of intestinal homeostasis in SCID/NOD mouse xenografted with human Jurkat cells assessed as increase in Reg3b expression in colon at 40 mg/kg, po administered once a day for 3 weeks by Western blot analysis; assay type: functional, organism-based; conditions: dose 40.0 mg/kg/day
Mus musculus [3] = assay: Induction of intestinal homeostasis in SCID/NOD mouse xenografted with human Jurkat cells assessed as increase in Reg3g expression in colon at 40 mg/kg, po administered once a day for 3 weeks by Western blot analysis; assay type: functional, organism-based; conditions: dose 40.0 mg/kg/day
Mus musculus [4] = assay: Inhibition of intestinal inflammation in SCID/NOD mouse xenografted with human Jurkat cells assessed as decrease in TLR4 expression in colon at 40 mg/kg, po administered once a day for 3 weeks by Western blot analysis; assay type: functional, organism-based; conditions: dose 40.0 mg/kg/day
Mus musculus [5] = assay: Inhibition of intestinal inflammation in SCID/NOD mouse xenografted with human Jurkat cells assessed as decrease in MYD88 expression in colon at 40 mg/kg, po administered once a day for 3 weeks by Western blot analysis; assay type: functional, organism-based; conditions: dose 40.0 mg/kg/day
Mus musculus [6] = assay: Inhibition of intestinal inflammation in SCID/NOD mouse xenografted with human Jurkat cells assessed as decrease in LPS level in colon at 40 mg/kg, po administered once a day for 3 weeks by ELISA; assay type: functional, organism-based; conditions: dose 40.0 mg/kg/day
Mus musculus [7] = assay: Inhibition of intestinal inflammation in SCID/NOD mouse xenografted with human Jurkat cells assessed as decrease in TNFalpha level in colon at 40 mg/kg, po administered once a day for 3 weeks by ELISA; assay type: functional, organism-based; conditions: dose 40.0 mg/kg/day
Mus musculus [8] = assay: Inhibition of intestinal inflammation in SCID/NOD mouse xenografted with human Jurkat cells assessed as decrease in IL1beta level in colon at 40 mg/kg, po administered once a day for 3 weeks by ELISA; assay type: functional, organism-based; conditions: dose 40.0 mg/kg/day
Mus musculus [9] = assay: Inhibition of intestinal inflammation in SCID/NOD mouse xenografted with human Jurkat cells assessed as decrease in IL-6 level in colon at 40 mg/kg, po administered once a day for 3 weeks by ELISA; assay type: functional, organism-based; conditions: dose 40.0 mg/kg/day
Mus musculus [10] = assay: Inhibition of intestinal inflammation in SCID/NOD mouse xenografted with human Jurkat cells assessed as increase in IL-10 level in colon at 40 mg/kg, po administered once a day for 3 weeks by ELISA; assay type: functional, organism-based; conditions: dose 40.0 mg/kg/day
Mus musculus [11] = assay: Inhibition of intestinal inflammation in SCID/NOD mouse xenografted with human Jurkat cells assessed as increase in TGFbeta level in colon at 40 mg/kg, po administered once a day for 3 weeks by ELISA; assay type: functional, organism-based; conditions: dose 40.0 mg/kg/day
Mus musculus [12] = assay: Induction of intestinal homeostasis in SCID/NOD mouse xenografted with human Jurkat cells assessed as decrease in disordered arrangement of epithelial cells in the colon at 40 mg/kg, po administered once a day for 3 weeks by AB-PAS staining based microscopic analysis; assay type: functional, organism-based; conditions: dose 40.0 mg/kg/day
Mus musculus [13] = assay: Inhibition of intestinal dysbiosis in SCID/NOD mouse xenografted with human Jurkat cells assessed as increase in abundance of Bacteroidetes in cecum at 40 mg/kg, po administered once a day for 3 weeks by multiplexed 16S rRNA gene sequencing analysis; assay type: functional, organism-based; conditions: dose 40.0 mg/kg/day
Mus musculus [14] = assay: Inhibition of intestinal dysbiosis in SCID/NOD mouse xenografted with human Jurkat cells assessed as increase in abundance of Verrucomicrobia in cecum at 40 mg/kg, po administered once a day for 3 weeks by multiplexed 16S rRNA gene sequencing analysis; assay type: functional, organism-based; conditions: dose 40.0 mg/kg/day
Mus musculus [15] = assay: Inhibition of intestinal dysbiosis in SCID/NOD mouse xenografted with human Jurkat cells assessed as decrease in abundance of Firmicutes in cecum at 40 mg/kg, po administered once a day for 3 weeks by multiplexed 16S rRNA gene sequencing analysis; assay type: functional, organism-based; conditions: dose 40.0 mg/kg/day
Mus musculus [16] = assay: Inhibition of intestinal dysbiosis in SCID/NOD mouse xenografted with human Jurkat cells assessed as decrease in abundance of Proteobacteria in cecum at 40 mg/kg, po administered once a day for 3 weeks by multiplexed 16S rRNA gene sequencing analysis; assay type: functional, organism-based; conditions: dose 40.0 mg/kg/day
Mus musculus [17] = assay: Inhibition of intestinal dysbiosis in SCID/NOD mouse xenografted with human Jurkat cells assessed as decrease in ratio of Firmicutes to Bacteroidetes in cecum at 40 mg/kg, po administered once a day for 3 weeks by multiplexed 16S rRNA gene sequencing analysis; assay type: functional; conditions: dose 40 mg/kg/day
Mus musculus [18] = assay: Inhibition of intestinal dysbiosis in SCID/NOD mouse xenografted with human Jurkat cells assessed as increase in abundance of Akkermansia in cecum at 40 mg/kg, po administered once a day for 3 weeks by multiplexed 16S rRNA gene sequencing analysis; assay type: functional, organism-based; conditions: dose 40.0 mg/kg/day
Mus musculus [19] = assay: Inhibition of intestinal dysbiosis in SCID/NOD mouse xenografted with human Jurkat cells assessed as increase in abundance of Lactobacillus in cecum at 40 mg/kg, po administered once a day for 3 weeks by multiplexed 16S rRNA gene sequencing analysis; assay type: functional, organism-based; conditions: dose 40.0 mg/kg/day
Mus musculus [20] = assay: Inhibition of intestinal dysbiosis in SCID/NOD mouse xenografted with human Jurkat cells assessed as increase in abundance of Lachnospiraceae_ NK4A136_group in cecum at 40 mg/kg, po administered once a day for 3 weeks by multiplexed 16S rRNA gene sequencing analysis; assay type: functional, organism-based; conditions: dose 40.0 mg/kg/day
Mus musculus [21] = assay: Inhibition of intestinal dysbiosis in SCID/NOD mouse xenografted with human Jurkat cells assessed as decrease in abundance of parabacteroides in cecum at 40 mg/kg, po administered once a day for 3 weeks by multiplexed 16S rRNA gene sequencing analysis; assay type: functional, organism-based; conditions: dose 40.0 mg/kg/day
Mus musculus [22] = assay: Inhibition of intestinal dysbiosis in SCID/NOD mouse xenografted with human Jurkat cells assessed as decrease in abundance of Alistipes in cecum at 40 mg/kg, po administered once a day for 3 weeks by multiplexed 16S rRNA gene sequencing analysis; assay type: functional, organism-based; conditions: dose 40.0 mg/kg/day
Mus musculus [23] = assay: Induction of intestinal homeostasis in SCID/NOD mouse xenografted with human Jurkat cells assessed as decrease in enlarged colon tissue at 40 mg/kg, po administered once a day for 3 weeks by AB-PAS staining based microscopic analysis; assay type: functional, organism-based; conditions: dose 40.0 mg/kg/day
Mus musculus [24] = assay: Induction of intestinal homeostasis in SCID/NOD mouse xenografted with human Jurkat cells assessed as reduction in crypt depth in colon at 40 mg/kg, po administered once a day for 3 weeks by AB-PAS staining based microscopic analysis; assay type: functional, organism-based; conditions: dose 40.0 mg/kg/day

CC(C)=CCC[C@](C)(O)[C@H]1CC[C@]2(C)[C@@H]1[C@H](O)C[C@@H]1[C@@]3(C)CC[C@H](O[C@@H]4O[C@H](CO)[C@@H](O)[C@H](O)[C@H]4O)C(C)(C)[C@@H]3CC[C@]12C [GINSENOSIDE RH2]
0.47: Ratio (Mus musculus [17])
active: Activity (Mus musculus [1]) | Activity (Mus musculus [2]) | Activity (Mus musculus [3]) | inhibition (Mus musculus [4]) | inhibition (Mus musculus [5]) | inhibition (Mus musculus [6]) | inhibition (Mus musculus [7]) | inhibition (Mus musculus [8]) | inhibition (Mus musculus [9]) | inhibition (Mus musculus [10]) | inhibition (Mus musculus [11]) | Activity (Mus musculus [12]) | inhibition (Mus musculus [13]) | inhibition (Mus musculus [14]) | inhibition (Mus musculus [15]) | inhibition (Mus musculus [16]) | inhibition (Mus musculus [18]) | inhibition (Mus musculus [19]) | inhibition (Mus musculus [20]) | inhibition (Mus musculus [21]) | inhibition (Mus musculus [22]) | Activity (Mus musculus [23]) | Activity (Mus musculus [24])
